# Experiments:
# Type in all cases: cell-based
# [1] = test system: E. coli (IMP-4+); experiment: Microdilution MIC and MBC assay, FICI; details: Bi(III) compound at 32 μg mL−1, E. coli (IMP-4+)
# [2] = test system: C. freundii (NDM-1+); experiment: Microdilution MIC and MBC assay, FICI; details: Bi(III) compound at 32 μg mL^−1, C. feudii (NDM-1+)
# [3] = test system: E. coli (NDM-1+); experiment: Microdilution MIC and MBC assay, checkerboard FICI; details: Bi(III) compound at 32 μg mL^−1, E. coli (NDM-1+)
smiles,measurement,setting,value
"O=C([O-])CC([O-])(CC(=O)[O-])C(=O)[O-].O=C([O-])CC([O-])(CC(=O)[O-])C(=O)[O-].[Bi+3].[Bi+3].[K+] [Complex 10, colloidal bismuth subcitrate]",MBC of MER with Bi(III) compound,[1],8 µg/mL
same,MIC of MER with Bi(III) compound,[1],4 µg/mL
same,MBC of MER with Bi(III) compound,[2],1 µg/mL
same,MIC of MER with Bi(III) compound,[2],0.5 µg/mL
same,MBC of MER with Bi(III) compound,[3],4 µg/mL
same,MIC of MER with Bi(III) compound,[3],2 µg/mL

# From US10624871B2, “Bismuth(III) compounds and methods thereof” (priority 2016, dated 2020)
